Data reported in patent EP4043444A1, “SUBSTITUTED ISOXAZOLINE DERIVATIVES” (priority 2021, dated 2022).
Read-outs that look alike come from different tables or passages of the source.

What was measured:
Assay type in all cases: in vivo
[1] = tested on: Tobacco Budworm (Heliothis virescens); assay: Tobacco Budworm control, 96-well microtiter plates with insect diet and eggs; conditions: for mortality at 2500 ppm: Heliothis virescens, 120 h, read-out: mortality (Egg and larval mortality)
Procedure: For evaluating control of Tobacco Budworm, the test unit consisted of 96-well-microtiter plates containing an insect diet and 15-25 H. virescens eggs. The compounds were formulated using a solution containing 75% v/v water and 25% v/v DMSO. Different concentrations of formulated compounds were sprayed onto the insect diet at 10µl, using a custom-built micro atomizer, at two replications. After application, microtiter plates were incubated at about 28 + 1°C and about 80 + 5 % relative humidity for 5 days. Egg and larval mortality was then visually assessed.

[2] = tested on: Boll weevil (Anthonomus grandis); assay: Boll weevil control, 96-well microtiter plates with insect diet and eggs; conditions: for mortality at 2500 ppm: Anthonomus grandis, 120 h, read-out: mortality (Egg and larval mortality)
Procedure: For evaluating control of boll weevil, the test unit consisted of 96-well-microtiter plates containing an insect diet and 5-10 A. grandis eggs.
The compounds were formulated using a solution containing 75% v/v water and 25% v/v DMSO. Different concentrations of formulated compounds were sprayed onto the insect diet at 5µl, using a custom-built micro atomizer, at two replications.
After application, microtiter plates were incubated at about 25 + 1°C and about 75 + 5 % relative humidity for 5 days. Egg and larval mortality were then visually assessed.

[3] = tested on: Green Peach Aphid (Myzus persicae) (mixed life stages); assay: Green Peach Aphid control through systemic means, artificial diet under artificial membrane; conditions: for mortality at 2500 ppm: Myzus persicae, 72 h, read-out: mortality (Aphid mortality)
Description: For evaluating control of Green Peach Aphid through systemic means the test unit consisted of 96-well-microtiter plates containing liquid artificial diet under an artificial membrane. The compounds were formulated using a solution containing 75% v/v water and 25% v/v DMSO. Different concentrations of formulated compounds were pipetted into the aphid diet, using a custom-built pipette, at two replications. After application, 5 - 8 adult aphids were placed on the artificial membrane inside the microtiter plate wells. The aphids were then allowed to suck on the treated aphid diet and incubated at about 23 + 1°C and about 50 + 5 % relative humidity for 3 days. Aphid mortality and fecundity was then visually assessed.

[4] = tested on: Yellow Fever Mosquito (Aedes aegypti); assay: whole plant or invertebrate; conditions: 48 h, 2 days, in comparison with untreated controls, read-out: mortality (Larval mortality)
Procedure: For evaluating control of Yellow Fever Mosquito the test unit consisted of 96-well-microtiter plates containing 200µl of tap water per well and 5-15 freshly hatched A. aegypti larvae. The active compounds were formulated using a solution containing 75% (v/v) water and 25% (v/v) DMSO. Different concentrations of formulated compounds or mixtures were sprayed onto the insect diet at 2.5µl, using a custom-built micro atomizer, at two replications.
After application, microtiter plates were incubated at 28 + 1°C, 80 + 5 % RH for 2 days. Larval mortality was then visually assessed.

[5] = 2500ppm, sprayed onto insect diet, 5 days, in comparison with untreated controls

Compound | mortality at 2500 ppm [1, 5] | mortality at 2500 ppm [2] | mortality at 2500 ppm [3] | mortality at 2500 ppm [4] | mortality at 2500 ppm [1] | mortality (Egg and larval mortality) [1, 5] | mortality (Egg and larval mortality) [2, 5] | mortality (Aphid mortality) ([3]; 2500 ppm, pipetted into aphid diet, 3 days, in comparison with untreated controls)
CC(C)(C#N)NC(=O)c1cc(NC2=NOC(c3cc(Cl)c(F)c(Cl)c3)(C(F)(F)F)C2)ccc1Cl (stereo not shown) [I-75, 2-chloro-N-(1-cyano-1-methyl-ethyl)-5-[[5-(3,5-dichloro-4-fluoro-phenyl)-5-(trifluoromethyl)-4H-isoxazol-3-yl]amino]benzamide] | ≥ 75% | ≥ 75% |  |  |  |  |  | 
O=C(Nc1ccc(F)cc1F)c1cc(NC2=NOC(c3cc(Cl)cc(Cl)c3)(C(F)(F)F)C2)ccc1C(F)(F)F (stereo not shown) [I-158] | ≥ 75% | ≥ 75% | ≥ 75% | ≥ 75% |  |  |  | 
O=C(CC(F)(F)F)Nc1c(F)ccc(NC(=O)c2cc(NC3=NOC(c4cc(Cl)cc(Cl)c4)(C(F)(F)F)C3)ccc2Cl)c1F (stereo not shown) [I-9] | ≥ 75% | ≥ 75% | ≥ 75% | ≥ 75% |  |  |  | 
O=C(Nc1ccc(F)c(NC(=O)C(F)(F)Cl)c1F)c1cc(NC2=NOC(c3cc(Cl)cc(Cl)c3)(C(F)(F)F)C2)ccc1Cl (stereo not shown) [I-7] | ≥ 75% | ≥ 75% | ≥ 75% | ≥ 75% |  |  |  | 
O=C(NC1CC1)c1cc(NC2=NOC(c3cc(Cl)cc(Cl)c3)(C(F)(F)F)C2)ccc1OC(F)(F)F (stereo not shown) [I-172] | ≥ 75% | ≥ 75% | ≥ 75% | ≥ 75% |  |  |  | 
CC(=O)Nc1c(F)ccc(NC(=O)c2cc(NC3=NOC(c4cc(Cl)cc(Cl)c4)(C(F)(F)F)C3)ccc2Cl)c1F (stereo not shown) [I-6] | ≥ 75% | ≥ 75% | ≥ 75% | ≥ 75% |  |  |  | 
Cc1ccc(NC2=NOC(c3cc(Cl)cc(Cl)c3)(C(F)(F)F)C2)cc1C(=O)NC1CC1 (stereo not shown) [I-169] | ≥ 75% | ≥ 75% | ≥ 75% | ≥ 75% |  |  |  | 
O=C(NCC(F)(F)F)c1cc(NC2=NOC(c3cc(Cl)cc(Cl)c3)(C(F)(F)F)C2)ccc1OC(F)(F)F (stereo not shown) [I-179] | ≥ 75% | ≥ 75% | ≥ 75% | ≥ 75% |  |  |  | 
CCN1OC[C@@H](NC(=O)c2cc(NC3=NOC(c4cc(Cl)cc(Cl)c4)(C(F)(F)F)C3)ccc2C)C1=O (stereo partly shown) [I-163] | ≥ 75% | ≥ 75% | ≥ 75% | ≥ 75% |  |  |  | 
N#CC1(NC(=O)c2cc(NC3=NOC(c4cc(Cl)cc(Cl)c4)(C(F)(F)F)C3)ccc2OC(F)(F)F)CC1 (stereo not shown) [I-150] | ≥ 75% | ≥ 75% | ≥ 75% | ≥ 75% |  |  |  | 
O=C(Nc1ccc(F)cc1F)c1cc(NC2=NOC(c3cc(Cl)cc(Cl)c3)(C(F)(F)F)C2)ccc1F (stereo not shown) [I-154] | ≥ 75% | ≥ 75% | ≥ 75% | ≥ 75% |  |  |  | 
O=C(N[C@@H]1CON(CC(F)(F)F)C1=O)c1cc(NC2=NOC(c3cc(Cl)c(F)c(Cl)c3)(C(F)(F)F)C2)ccc1Cl (stereo partly drawn) [I-119, 2-chloro-5-[[5-(3,5-dichloro-4-fluoro-phenyl)-5-(trifluoromethyl)-4H-isoxazol-3-yl]amino]-N-[(4R)-3-oxo-2-(2,2,2-trifluoroethyl)isoxazolidin-4-yl]benzamide] |  | ≥ 75% | ≥ 75% | ≥ 75% | ≥ 75% |  |  | 
O=C(NC1C[S+]([O-])C1)c1cc(NC2=NOC(c3cc(Cl)c(F)c(Cl)c3)(C(F)(F)F)C2)ccc1Cl (stereo not shown) [I-96, 2-chloro-5-[[5-(3,5-dichloro-4-fluoro-phenyl)-5-(trifluoromethyl)-4H-isoxazol-3-yl]amino]-N-(1-oxothietan-3-yl)benzamide] |  | ≥ 75% | ≥ 75% | ≥ 75% | ≥ 75% |  |  | 
CCOC(=O)N(C1=NOC(c2cc(Cl)cc(Cl)c2)(C(F)(F)F)C1)c1ccc(Cl)c(C(=O)NC2(C#N)CC2)c1 (stereo not shown) [I-28, ethyl N-[4-chloro-3-[(1-cyanocyclopropyl)carbamoyl]phenyl]-N-[5-(3,5-dichlorophenyl)-5-(trifluoromethyl)-4H-isoxazol-3-yl]carbamate] | ≥ 75% | ≥ 75% |  | ≥ 75% |  |  |  | 
O=C(Nc1ccc(F)cc1F)c1cccc(NC2=NOC(c3cc(Cl)cc(Cl)c3)(C(F)(F)F)C2)c1F (stereo not shown) [I-13, 3-[[5-(3,5-dichlorophenyl)-5-(trifluoromethyl)-4H-isoxazol-3-yl]amino]-N-(2,4-difluorophenyl)-2-fluoro-benzamide] | ≥ 75% | ≥ 75% | ≥ 75% | ≥ 75% |  |  |  | 
O=C(Nc1ccc(F)cc1F)c1cc(NC2=NOC(c3cc(Cl)cc(Cl)c3)(C(F)(F)F)C2)ccc1OC(F)(F)F (stereo not shown) [I-159] | ≥ 75% | ≥ 75% |  | ≥ 75% |  |  |  | 
N#Cc1c(NC2=NOC(c3cc(Cl)cc(Cl)c3)(C(F)(F)F)C2)cccc1C(=O)NC1CC1 (stereo not shown) [I-173] | ≥ 75% |  |  | ≥ 75% |  |  |  | 
N#CC1(NC(=O)c2cc(NC3=NOC(c4cc(Cl)cc(Cl)c4)(C(F)(F)F)C3)ccc2OC(F)F)CC1 (stereo not shown) [I-148] | ≥ 75% | ≥ 75% |  | ≥ 75% |  |  |  | 
CCN1OC[C@@H](NC(=O)c2ccc(NC3=NOC(c4cc(Cl)cc(Cl)c4)(C(F)(F)F)C3)cc2Cl)C1=O (stereo partly shown) [I-71] |  |  |  | ≥ 75% |  |  |  | 
N#CC1(NC(=O)c2cc(N(CC3CC3)C3=NOC(c4cc(Cl)cc(Cl)c4)(C(F)(F)F)C3)ccc2Cl)CC1 (stereo not shown) [I-25, 2-chloro-N-(1-cyanocyclopropyl)-5-[cyclopropylmethyl-[5-(3,5-dichlorophenyl)-5-(trifluoromethyl)-4H-isoxazol-3-yl]amino]benzamide] | ≥ 75% | ≥ 75% |  | ≥ 75% |  |  |  | 
N#CC1(NC(=O)c2c(F)ccc(NC3=NOC(c4cc(Cl)cc(Cl)c4)(C(F)(F)F)C3)c2F)CC1 (stereo not shown) [I-11, N-(1-cyanocyclopropyl)-3-[[5-(3,5-dichlorophenyl)-5-(trifluoromethyl)-4H-isoxazol-3-yl]amino]-2,6-difluoro-benzamide] | ≥ 75% |  |  | ≥ 75% |  |  |  | 
CCOC(=O)N(C1=NOC(c2cc(Cl)cc(Cl)c2)(C(F)(F)F)C1)c1ccc(Cl)c(C(=O)N(C(=O)OCC)C2(C#N)CC2)c1 (stereo not shown) [I-142, ethyl N-[4-chloro-3-[(1-cyanocyclopropyl)-ethoxycarbonyl-carbamoyl]-phenyl]-N-[5-(3,5-dichlorophenyl)-5-(trifluoromethyl)-4H-isoxazol-3-yl]carbamate] | ≥ 75% | ≥ 75% |  | ≥ 75% |  |  |  | 
COc1ccc(NC2=NOC(c3cc(Cl)cc(Cl)c3)(C(F)(F)F)C2)cc1C(=O)NC1CC1 (stereo not shown) [I-170] | ≥ 75% | ≥ 75% |  | ≥ 75% |  |  |  | 
O=C(CC1CC1)Nc1c(F)ccc(NC(=O)c2cc(NC3=NOC(c4cc(Cl)cc(Cl)c4)(C(F)(F)F)C3)ccc2Cl)c1F (stereo not shown) [I-10] | ≥ 75% | ≥ 75% |  | ≥ 75% |  |  |  | 
N#CC1(NC(=O)c2cc(NC3=NOC(c4cc(Cl)cc(Cl)c4)(C(F)(F)F)C3)ccc2C(F)(F)F)CC1 (stereo not shown) [I-149] | ≥ 75% | ≥ 75% |  | ≥ 75% |  |  |  | 
COc1ccc(NC2=NOC(c3cc(Cl)cc(Cl)c3)(C(F)(F)F)C2)cc1C(=O)NC1(C#N)CC1 (stereo not shown) [I-147] |  | ≥ 75% |  | ≥ 75% |  |  |  | 
O=C(NCc1ccccn1)c1ccc(NC2=NOC(c3cc(Cl)cc(Cl)c3)(C(F)(F)F)C2)cc1Cl (stereo not shown) [I-70] | ≥ 75% | ≥ 75% |  | ≥ 75% |  |  |  | 
Cc1ccc(NC2=NOC(c3cc(Cl)cc(Cl)c3)(C(F)(F)F)C2)cc1C(=O)NCC(F)(F)F (stereo not shown) [I-176] | ≥ 75% | ≥ 75% |  | ≥ 75% |  |  |  | 
2-chloro-5-[[5-(3,5-dichloro-4-fluoro-phenyl)-5-(trifluoromethyl)-4H-isoxazol-3-yl]amino]-N-[1-(trifluoromethylsulfonyl)azetidin-3-yl]benzamide [I-99] |  |  |  |  |  | at least 75% | at least 75% | at least 75%
